The values below come from ChEMBL document CHEMBL2021867, “Systematic Chemical Mutagenesis Identifies a Potent Novel Apratoxin A/E Hybrid with Improved in Vivo Antitumor Activity” (ACS Med Chem Lett, 2011).

Calls of active or inactive are those of the source. The calls are words filed in the database; no cut-off is given here.

The test system of series [1] is Mus musculus. Kind of series: Reduction in VEGFR2 level in tumor of human HCT116 cells xenografted in nu/nu mouse at 0.25 mg/kg, ip dosed daily for over 2 weeks by Western blot. Particulars: HCT-116. Further details: dose 0.25 mg/kg. In kind it is functional, organism-based.
In series [2] the test system is Mus musculus. The series is described as follows: Toxicity in human HCT116 cells xenografted nu/nu mouse assessed as body weight loss at > 0.375 mg/kg, ip measured post compound withdrawal. Set-up: dose 0.375 mg/kg, route intraperitoneal. The format is organism-based, HCT-116. Particulars: in vivo. On the technique in general: In xenograft studies the graft and the host belong to different species.

For series [3], the species on record is Oryctolagus cuniculus. The series is described as follows: Inhibition of cotranslational processing of in rabbit reticulocyte assessed as [35S-methionine] incorporation using canine pancreatic microsomal membranes by SDS-PAGE analysis. In kind it is functional, microsomes. The following applies: Microsome.
The subject of series [4] is Mus musculus. Kind of series: Toxicity in human HCT116 cells xenografted nu/nu mouse assessed as liver histology changes at 0.25 mg/kg, ip dosed daily for over 2 weeks. In kind it is organism-based, HCT-116. Further details: dose 0.25 mg/kg, route intraperitoneal. The following applies: in vivo, 336 h.
In series [5] the test system is HCT-116. The series is described as follows: Antitumor activity against human HCT116 cells xenografted in nu/nu mouse model at 0.25 mg/kg, ip dosed daily for over 2 weeks. Further details: dose 0.25 mg/kg. In kind it is functional, organism-based.
Series [6] concerns Mus musculus. Kind of series: Toxicity in human HCT116 cells xenografted nu/nu mouse assessed as mortality at > 0.375 mg/kg, ip measured post compound withdrawal. In kind it is organism-based, HCT-116. Set-up: dose 0.375 mg/kg, route intraperitoneal. Particulars: in vivo.
Series [7] is filed under the species Oryctolagus cuniculus. The series is described as follows: Inhibition of cotranslational processing of human PDGFRalpha in rabbit reticulocyte assessed as [35S-methionine] incorporation using canine pancreatic microsomal membranes by SDS-PAGE analysis. The format is functional, microsomes. Particulars: Microsome.
Series [8] deals with Mus musculus. Kind of series: Reduction in VEGFR2 level in liver of human HCT116 cells xenografted in nu/nu mouse at 0.25 mg/kg, ip dosed daily for over 2 weeks by Western blot. Further details: dose 0.25 mg/kg. The format is functional, organism-based. Particulars: HCT-116.
Series [9] has as its system Mus musculus. Kind of series: Toxicity in human HCT116 cells xenografted nu/nu mouse assessed as kidney histology changes at 0.25 mg/kg, ip dosed daily for over 2 weeks. Particulars: in vivo, 336 h. The format is organism-based, HCT-116. Further details: dose 0.25 mg/kg, route intraperitoneal.
The test system of series [10] is Mus musculus. The series is described as follows: Toxicity in human HCT116 cells xenografted nu/nu mouse assessed as weight loss at 0.25 mg/kg, ip dosed daily for over 2 weeks. Set-up: dose 0.25 mg/kg, route intraperitoneal. Particulars: in vivo, 336 h. The format is organism-based, HCT-116.
In series [11] the test system is Mus musculus. The series is described as follows: Toxicity in human HCT116 cells xenografted nu/nu mouse assessed as body weight loss at > 0.375 mg/kg, ip. In kind it is organism-based, HCT-116. Further details: dose 0.375 mg/kg, route intraperitoneal. Particulars: in vivo.
In series [12] the test system is Mus musculus. The series is described as follows: Reduction in PDGFRbeta level in tumor of human HCT116 cells xenografted in nu/nu mouse at 0.25 mg/kg, ip dosed daily for over 2 weeks by Western blot. The format is functional, organism-based. Further details: dose 0.25 mg/kg. The following applies: HCT-116.
Series [13] has as its system Mus musculus. The series is described as follows: Irreversible toxicity in human HCT116 cells xenografted nu/nu mouse at > 0.375 mg/kg, ip measured post compound withdrawal. In kind it is organism-based, HCT-116. Further details: dose 0.375 mg/kg, route intraperitoneal. Particulars: in vivo.
Series [14] relates to Mus musculus. Kind of series: Toxicity in human HCT116 cells xenografted nu/nu mouse assessed as mortality at > 0.375 mg/kg, ip. The following applies: in vivo. Set-up: dose 0.375 mg/kg, route intraperitoneal. In kind it is organism-based, HCT-116.
The target in series [15] is Hepatocyte growth factor receptor (Homo sapiens) (UniProt P08581). Kind of series: Inhibition of Met expressed human HCT116 cells by immunoblotting assay. The format is cell-based. The following applies: HCT-116. (In general: Immunoblotting shows a protein as a band on a membrane.)
Sequence of Hepatocyte growth factor receptor (Homo sapiens) (P08581 whole entry): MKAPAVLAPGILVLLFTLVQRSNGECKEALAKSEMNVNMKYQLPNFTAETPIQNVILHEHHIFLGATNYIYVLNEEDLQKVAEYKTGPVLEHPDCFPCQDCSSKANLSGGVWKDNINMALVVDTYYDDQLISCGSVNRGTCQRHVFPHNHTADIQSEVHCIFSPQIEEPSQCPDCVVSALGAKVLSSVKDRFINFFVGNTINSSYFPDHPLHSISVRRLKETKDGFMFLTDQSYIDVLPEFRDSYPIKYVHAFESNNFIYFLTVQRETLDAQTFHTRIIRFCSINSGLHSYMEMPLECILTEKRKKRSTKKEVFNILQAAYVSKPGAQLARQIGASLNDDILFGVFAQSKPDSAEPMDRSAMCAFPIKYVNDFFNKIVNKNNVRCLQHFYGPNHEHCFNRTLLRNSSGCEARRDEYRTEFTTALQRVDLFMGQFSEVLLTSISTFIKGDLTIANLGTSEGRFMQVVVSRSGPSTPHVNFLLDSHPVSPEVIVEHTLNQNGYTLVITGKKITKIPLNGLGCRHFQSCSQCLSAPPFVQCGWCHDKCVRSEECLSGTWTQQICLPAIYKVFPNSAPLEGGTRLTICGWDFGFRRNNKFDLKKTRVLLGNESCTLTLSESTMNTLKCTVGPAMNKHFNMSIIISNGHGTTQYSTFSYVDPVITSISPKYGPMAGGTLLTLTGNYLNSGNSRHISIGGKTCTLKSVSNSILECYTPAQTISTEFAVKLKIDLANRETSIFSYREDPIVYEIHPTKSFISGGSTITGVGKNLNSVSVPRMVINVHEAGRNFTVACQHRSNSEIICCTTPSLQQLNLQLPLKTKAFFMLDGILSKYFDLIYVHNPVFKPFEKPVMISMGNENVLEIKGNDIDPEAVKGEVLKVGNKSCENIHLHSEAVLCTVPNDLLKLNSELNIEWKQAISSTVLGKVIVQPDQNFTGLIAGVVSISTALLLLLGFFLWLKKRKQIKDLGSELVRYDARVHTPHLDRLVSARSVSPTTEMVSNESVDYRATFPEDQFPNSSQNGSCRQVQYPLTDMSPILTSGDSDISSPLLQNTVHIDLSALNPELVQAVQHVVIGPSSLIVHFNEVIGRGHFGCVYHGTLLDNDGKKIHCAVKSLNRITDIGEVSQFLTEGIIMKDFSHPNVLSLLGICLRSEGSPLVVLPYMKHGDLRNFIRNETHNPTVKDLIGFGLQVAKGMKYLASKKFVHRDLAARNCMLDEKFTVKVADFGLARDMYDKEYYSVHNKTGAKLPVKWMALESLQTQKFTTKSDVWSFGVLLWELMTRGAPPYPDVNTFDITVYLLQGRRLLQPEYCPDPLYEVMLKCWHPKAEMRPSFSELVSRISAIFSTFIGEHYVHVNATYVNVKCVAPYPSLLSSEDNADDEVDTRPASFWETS

Turning to `CC[C@H](C)[C@H]1C(=O)N2CCC[C@H]2C(=O)O[C@H](C(C)(C)C)C[C@@H](C)C[C@H](O)[C@H](C)C2=N[C@@H](CCC(=O)N[C@@H](Cc3ccc(OC)cc3)C(=O)N(C)[C@@H](C)C(=O)N1C)CS2` [APRATOXIN S4], the outcome in series [1], in series [5] and in [12] was Active. For the same compound, the Activity entry in [2], in series [4], in series [6], in [9], in [10] and in series [11] was “Non-toxic” throughout. Moreover, the Activity result in series [13] and in series [14] was “Non-toxic” throughout. Besides, the inhibition entry in series [3] is “Dose-dependent effect”. For the same compound, the inhibition entry in series [7] is “Active”. The result in [8] was inactive.

For `COc1ccc(C[C@@H]2NC(=O)/C(C)=C/[C@H]3CSC(=N3)[C@@H](C)[C@@H](O)C[C@H](C)C[C@@H](C(C)(C)C)OC(=O)[C@@H]3CCCN3C(=O)[C@H](C)N(C)C(=O)[C@H](C)N(C)C2=O)cc1`, the inhibition result in series [15] was “inactive”.

In the case of `CC[C@H](C)[C@H]1C(=O)N(C)[C@@H](C)C(=O)O[C@H](C(C)(C)C)C[C@@H](C)C[C@H](O)[C@H](C)C2=N[C@@H](/C=C(\C)C(=O)N[C@@H](Cc3ccc(OC)cc3)C(=O)N(C)[C@@H](C)C(=O)N1C)CS2`, in [15], the inhibition result is “Active”.

For `CC[C@H](C)[C@H]1C(=O)N2CCC[C@H]2C(=O)O[C@H](C(C)(C)C)C[C@@H](C)C[C@H](O)[C@H](C)C2=N[C@@H](/C=C(\C)C(=O)N[C@@H](C)C(=O)N(C)[C@@H](C)C(=O)N1C)CS2`, the inhibition result in series [15] is “inactive”.
